Data: US20240287080A1 (IDEAYA Biosciences Inc., priority 2021, published 2024)

Molecular target: T1, Pol theta (1-899) (Homo sapiens, UniProt O75417)
T1 construct: Pol theta (1-899) (5 nM) in assay buffer
Test: Pol theta ATPase activity, NADH oxidation-coupled enzymatic assay (ATPase NADH coupling: Standard Screening: hPolQ)
Format: biochemical
Details: Pol theta (1-899) 5 nM
Procedure, shortened: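 Rates of ATP hydrolysis taken from 60-min A340 traces of NADH oxidation via PK/LDH coupling, then fit four-parameter for IC50, Hill slope and max inhibition. Enzyme (5 nM, 1-899) and compounds preincubated 15 min before ATP 100 μM and 50-thymine ssDNA 300 nM (stock, equal volume added).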

[1] = NADH oxidation-coupled ATPase assay, compounds of Table 3
[2] = Table 5, values given as bound, ATP, dT50 ssDNA

T1 sequence (O75417 1-899): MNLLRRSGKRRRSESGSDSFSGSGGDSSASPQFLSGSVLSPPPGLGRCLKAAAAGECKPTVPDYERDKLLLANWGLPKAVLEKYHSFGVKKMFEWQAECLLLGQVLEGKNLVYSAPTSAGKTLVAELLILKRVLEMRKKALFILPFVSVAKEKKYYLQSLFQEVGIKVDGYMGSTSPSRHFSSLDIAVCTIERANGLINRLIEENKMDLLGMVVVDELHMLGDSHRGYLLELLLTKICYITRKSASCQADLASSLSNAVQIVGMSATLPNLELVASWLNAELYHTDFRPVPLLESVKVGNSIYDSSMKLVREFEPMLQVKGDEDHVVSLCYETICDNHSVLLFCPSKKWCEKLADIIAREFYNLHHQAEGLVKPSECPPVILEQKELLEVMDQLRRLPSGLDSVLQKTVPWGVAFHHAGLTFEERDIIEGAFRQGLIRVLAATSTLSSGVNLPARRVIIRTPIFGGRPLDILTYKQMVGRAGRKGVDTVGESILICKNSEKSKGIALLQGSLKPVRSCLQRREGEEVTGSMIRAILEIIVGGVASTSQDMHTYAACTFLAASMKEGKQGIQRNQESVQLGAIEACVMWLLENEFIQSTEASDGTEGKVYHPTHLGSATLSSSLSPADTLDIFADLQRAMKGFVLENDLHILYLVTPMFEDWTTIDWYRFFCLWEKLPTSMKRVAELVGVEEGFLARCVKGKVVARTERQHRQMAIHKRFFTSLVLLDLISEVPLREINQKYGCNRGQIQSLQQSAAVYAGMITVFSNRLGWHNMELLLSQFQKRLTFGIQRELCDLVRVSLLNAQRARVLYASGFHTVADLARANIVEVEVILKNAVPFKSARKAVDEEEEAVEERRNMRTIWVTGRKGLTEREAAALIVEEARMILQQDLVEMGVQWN

IC50 [1] [nM] | Compound | also measured
1000 to 10000 | COc1cc(C)c(-c2cc(C)ncc2C(=O)Nc2nnc(OC)s2)cn1 [Example 463, 6-methoxy-N-(5-methoxy-1,3,4-thiadiazol-2-yl)-4,6′-dimethyl-[3,4′-bipyridine]-3′-carboxamide] | –
1000 to 10000 | COc1nnc(NC(=O)c2cnc(C)cc2-c2ccc3nc[nH]c3c2)s1 [Example 490, 4-(1H-1,3-benzodiazol-6-yl)-N-(5-methoxy-1,3,4-thiadiazol-2-yl)-6-methylpyridine-3-carboxamide] | –
– | COc1nnc(NC(=O)c2cnc(C)cc2-c2cc3[nH]cnc3cc2OC)s1 [Example 71, N-(5-methoxy-1,3,4-thiadiazol-2-yl)-4-(5-methoxy-1H-benzo(d)imidazol-6-yl)-6-methylnicotinamide] | IC50 (Table 4, ATP, dT50 ssDNA): 1000 to 10000 nM
≤ 200 | COc1cnc(Cl)cc1-c1cc(C)ncc1C(=O)Nc1nnc(O[C@@H]2C[C@H](F)CN(C3COC3)C2)s1 (single isomer, unassigned) [Example 260] | –
– | COc1nnc(NC(=O)c2cnc(C)cc2-c2cccc3scnc23)s1 [Example 98, 4-(benzo(d)thiazol-4-yl)-N-(5-methoxy-1,3,4-thiadiazol-2-yl)-6-methylnicotinamide] | IC50 [2]: > 10000 nM
– | COc1cnc(Cl)cc1-c1cc(C)ncc1C(=O)Nc1nnc(O[C@H]2CC[C@@H](C(C)(C)O)CC2)s1 [Example 175, 2′-chloro-N-(5-(((1s,4s)-4-(2-hydroxypropan-2-yl)cyclohexyl)oxy)-1,3,4-thiadiazol-2-yl)-5′-methoxy-6-methyl-(4,4′-bipyridine)-3-carboxamide] | IC50 (Table 5, ATP, dT50 ssDNA): ≤ 200 nM
– | COc1cnc(Cl)cc1-c1cc(C)ncc1C(=O)Nc1nnc(O[C@H]2CCC[C@@](C)(O)C2)s1 (racemic) [Example 177, rac-2′-chloro-N-(5-(((1R,3S)-3-hydroxy-3-methylcyclohexyl)oxy)-1,3,4-thiadiazol-2-yl)-5′-methoxy-6-methyl-(4,4′-bipyridine)-3-carboxamide] | IC50 (Table 5, ATP, dT50 ssDNA): 200 to 500 nM
1000 to 10000 | COc1nnc(NC(=O)c2cnc(C)cc2-c2cn[nH]c2)s1 [Example 451, N-(5-methoxy-1,3,4-thiadiazol-2-yl)-6-methyl-4-(1H-pyrazol-4-yl)nicotinamide] | –
≤ 200 | COc1cnc(Cl)cc1-c1cc(C)ncc1C(=O)Nc1nnc(OC2CCCN(C3COC3)C2)s1 (stereo not shown) [Example 250, 2′-chloro-5′-methoxy-6-methyl-N-(5-((1-(oxetan-3-yl)piperidin-3-yl)oxy)-1,3,4-thiadiazol-2-yl)-[4,4′-bipyridine]-3-carboxamide] | –
– | COc1cnc(Cl)c(F)c1-c1cc(C)ncc1C(=O)Nc1nnc(O[C@H]2CC[C@](C)(O)CC2)s1 (single isomer, unassigned) [Example 172, 2′-chloro-3′-fluoro-N-(5-(((1r,4r)-4-hydroxy-4-methylcyclohexyl)oxy)-1,3,4-thiadiazol-2-yl)-5′-methoxy-6-methyl-(4,4′-bipyridine)-3-carboxamide] | IC50 (Table 5, ATP, dT50 ssDNA): ≤ 200 nM
– | COc1nnc(NC(=O)c2ccn(-c3cc(Cl)ncc3OC)n2)s1 [Example 235, 1-(2-chloro-5-methoxypyridin-4-yl)-N-(5-methoxy-1,3,4-thiadiazol-2-yl)-1H-pyrazole-3-carboxamide] | IC50 [2]: > 10000 nM
500 to 1000 | COc1ccc(F)c(-c2cc(C)ncc2C(=O)Nc2nnc(OC)s2)c1 [Example 447, 4-(2-fluoro-5-methoxyphenyl)-N-(5-methoxy-1,3,4-thiadiazol-2-yl)-6-methylpyridine-3-carboxamide] | –
– | C#CCOc1nnc(NC(=O)c2ccncc2-c2ccccc2OC)s1 [Example 1, 3-(2-methoxyphenyl)-N-(5-(prop-2-yn-1-yloxy)-1,3,4-thiadiazol-2-yl)isonicotinamide] | IC50 (Table 4, ATP, dT50 ssDNA): ≤ 200 nM
500 to 1000 | COc1nnc(NC(=O)c2cnc(C)cc2-c2cccc(F)c2C#N)s1 [Example 430, 4-(2-cyano-3-fluorophenyl)-N-(5-methoxy-1,3,4-thiadiazol-2-yl)-6-methylpyridine-3-carboxamide] | –
– | COc1cnc(C)c(F)c1-c1cc(C)ncc1C(=O)Nc1nnc(O[C@@H]2COC3(CC3)C2)s1 (single isomer, unassigned) [Example 207] | IC50 (Table 5, ATP, dT50 ssDNA): ≤ 200 nM
500 to 1000 | COc1cc(C)cc(-c2cc(C)ncc2C(=O)Nc2nnc(OC)s2)c1 [Example 422, N-(5-methoxy-1,3,4-thiadiazol-2-yl)-4-(3-methoxy-5-methylphenyl)-6-methylpyridine-3-carboxamide] | –
– | COc1cnc(Cl)c(F)c1-c1cc(C)ncc1C(=O)Nc1nnc(O[C@H]2CCC[C@H](O)C2)s1 (single isomer, unassigned) [Example 156] | IC50 (Table 5, ATP, dT50 ssDNA): ≤ 200 nM
1000 to 10000 | COc1nnc(NC(=O)c2cnc(C)cc2-c2ccccc2C#N)s1 [Example 454, 4-(2-cyanophenyl)-N-(5-methoxy-1,3,4-thiadiazol-2-yl)-6-methylpyridine-3-carboxamide] | –
≤ 200 | COc1cc(C(=O)Nc2nnc(OC)s2)c(-c2cc(Cl)ncc2OC)cn1 [Example 242, 2′-chloro-5′,6-dimethoxy-N-(5-methoxy-1,3,4-thiadiazol-2-yl)-[3,4′-bipyridine]-4-carboxamide] | –

IC50 [1] [nM] | Compound | also measured
1000 to 10000 | COc1ccc(-c2cc(C)ncc2C(=O)Nc2nnc(OC)s2)cn1 [Example 407, 6-methoxy-N-(5-methoxy-1,3,4-thiadiazol-2-yl)-6′-methyl-[3,4′-bipyridine]-3′-carboxamide] | –
500 to 1000 | COc1nnc(NC(=O)c2cnc(C)cc2-c2ccc(F)cc2C)s1 [Example 428, 4-(4-fluoro-2-methylphenyl)-N-(5-methoxy-1,3,4-thiadiazol-2-yl)-6-methylpyridine-3-carboxamide] | –
– | COc1cnc(Cl)cc1-c1cc(C)ncc1C(=O)Nc1nnc(O[C@H]2C[C@H](O)C2(C)C)s1 (single isomer, unassigned) [Example 184, 2′-chloro-N-(5-((1r,3r)-3-hydroxy-2,2-dimethylcyclobutoxy)-1,3,4-thiadiazol-2-yl)-5′-methoxy-6-methyl-(4,4′-bipyridine)-3-carboxamide] | IC50 (Table 5, ATP, dT50 ssDNA): ≤ 200 nM
1000 to 10000 | COc1nnc(NC(=O)c2cnc(C)cc2-c2cccc(CN(C)C)c2)s1 [Example 410, 4-(3-((dimethylamino)methyl)phenyl)-N-(5-methoxy-1,3,4-thiadiazol-2-yl)-6 methylnicotinamide] | –
1000 to 10000 | COc1nnc(NC(=O)c2cnc(C)cc2-c2ccco2)s1 [Example 391, 4-(furan-2-yl)-N-(5-methoxy-1,3,4-thiadiazol-2-yl)-6-methylpyridine-3-carboxamide] | –
1000 to 10000 | COc1nnc(NC(=O)c2cnc(C)cc2-c2ccccc2C(C)C)s1 [Example 392, N-(5-methoxy-1,3,4-thiadiazol-2-yl)-6-methyl-4-[2-(propan-2-yl)phenyl]pyridine-3-carboxamide] | –
1000 to 10000 | COc1nnc(NC(=O)c2cnc(C)cc2-c2cncc(C(=O)N(C)C)c2)s1 [Example 483, N3′-(5-methoxy-1,3,4-thiadiazol-2-yl)-N5,N5,6′-trimethyl-[3,4′-bipyridine]-3′,5-dicarboxamide] | –
– | COc1nnc(NC(=O)c2cn3ccnc3cc2-c2c(F)cccc2OC)s1 [Example 50, 7-(2-fluoro-6-methoxyphenyl)-N-(5-methoxy-1,3,4-thiadiazol-2-yl)imidazo(1,2-a)pyridine-6-carboxamide] | IC50 (Table 4, ATP, dT50 ssDNA): 1000 to 10000 nM
1000 to 10000 | CCCCc1ccc(-c2cc(C)ncc2C(=O)Nc2nnc(OC)s2)cc1 [Example 484, 4-(4-butylphenyl)-N-(5-methoxy-1,3,4-thiadiazol-2-yl)-6-methylpyridine-3-carboxamide] | –
500 to 1000 | COc1nnc(NC(=O)c2cnc(C)cc2-c2cccc(F)c2)s1 [Example 421, 4-(3-fluorophenyl)-N-(5-methoxy-1,3,4-thiadiazol-2-yl)-6-methylpyridine-3-carboxamide] | –
1000 to 10000 | COc1nnc(NC(=O)c2cnc(C)cc2-c2cccc(OC)c2C#N)s1 [Example 411, 4-(2-cyano-3-methoxyphenyl)-N-(5-methoxy-1,3,4-thiadiazol-2-yl)-6-methylpyridine-3-carboxamide] | –
– | COc1cnc(Cl)c(F)c1-c1cc(C)ncc1C(=O)Nc1nnc(O[C@@H]2CCC[C@@H](O)C2)s1 (single isomer, unassigned) [Example 157] | IC50 (Table 5, ATP, dT50 ssDNA): ≤ 200 nM
≤ 200 | COc1cnc(C)cc1-c1cc(C)ncc1C(=O)Nc1nnc(OC(C)COCC(F)(F)F)s1 (stereo not shown) [Example 241, 5′-methoxy-2′,6-dimethyl-N-(5-((1-(2,2,2-trifluoroethoxy)propan-2-yl)oxy)-1,3,4-thiadiazol-2-yl)-[4,4′-bipyridine]-3-carboxamide] | –
– | COc1cnc(Cl)c(F)c1-c1cc(C)ncc1C(=O)Nc1nnc(O[C@H]2CCOC2)s1 [Example 81, 2′-chloro-3′-fluoro-5′-methoxy-6-methyl-N-(5-(((S)-tetrahydrofuran-3-yl)oxy)-1,3,4-thiadiazol-2-yl)-(4,4′-bipyridine)-3-carboxamide] | IC50 (Table 5, ATP, dT50 ssDNA): ≤ 200 nM
1000 to 10000 | COc1nnc(NC(=O)c2cnc(C)cc2-c2ccc(C#N)nc2)s1 [Example 437, 6-cyano-N-(5-methoxy-1,3,4-thiadiazol-2-yl)-6′-methyl-[3,4′-bipyridine]-3′-carboxamide] | –
1000 to 10000 | COc1nnc(NC(=O)c2cnc(C)cc2-c2cccs2)s1 [Example 360, N-(5-methoxy-1,3,4-thiadiazol-2-yl)-6-methyl-4-(thiophen-2-yl)pyridine-3-carboxamide] | –
– | COc1nnc(NC(=O)c2cnc(C)cc2-c2ccccc2OC)s1 [Example 54, N-(5-methoxy-1,3,4-thiadiazol-2-yl)-4-(2-methoxyphenyl)-6-methylnicotinamide] | IC50 (Table 4, ATP, dT50 ssDNA): 500 to 1000 nM
– | COc1nnc(NC(=O)c2cnc(C)cc2-c2cc(C)ncc2C)s1 [Example 56, N-(5-methoxy-1,3,4-thiadiazol-2-yl)-2′,5′,6-trimethyl-(4,4′-bipyridine)-3-carboxamide] | IC50 (Table 4, ATP, dT50 ssDNA): 200 to 500 nM
